What all share (format): cell-based
The subject of assay [1] is lipid linked oligosaccharides (LLOs). Description: FACE analysis of lipid linked oligosaccharides. As to conditions: FACE, FIG. 2B. The protocol: Fluorophore assisted carbohydrate electrophoresis (FACE) was performed as previously described (Gao, et al., Glycobiology 2002, 12, 353-360; Gao, et al., J Biol Chem 2005, 280, 17901-17909). Control (Ac-Gln-Tyr-Thr-CONH2) and acceptor (Ac-Asn-Tyr-Thr-CONH2) peptides were used for permeabilized cell experiments. Metabolic labeling of Hela cells, transfection of prosaposin (pSAP) and steroid hormone binding globulin (SHBG) vectors, and knockdown of SIT3A and STT3B to monitor N-linked glycosylation knockdown were performed as described (Shrimal, et al., J Cell Biol 2013, 201, 81-95). Western blot analysis was performed as previously described (Bennett, et al., Transl Oncol 2013, 6, 382-391). The following primary antibodies were used: rabbit anti-EGFR (sc-03; Santa Cruz Biotechnology; 1:1000), rabbit anti-phospho (Tyr1173) EGF Receptor (Cell Signaling; 1:1000), rabbit anti-p21 Waf1/Cip1 (12D1; Cell Signaling; 1:1000), rabbit anti-Cyclin D1 (Cell Signaling; 1:1000), mouse anti-β-Actin (8H10D10; Cell Signaling; 1:1000). For phospho-protein array analysis, PC9 and A549 cells were cultured in 6-well plates in serum-containing medium and treated with or without 10 μM NGI-1 for 24 hours. […]

In assay [2] the test system is PC9 cells. The assay is described as follows: MTT proliferation assay, PC9. As to conditions: PC9, 1 μM tunicamycin. The protocol:
(§1) FIGS. 4A-4H illustrate the finding that NGI-1 blocks RTK driven proliferation. FIG. 4A illustrates western blot analysis of EGFR phosphorylation (Y1173) and gel mobility in PC9 (EGFR-mutant) and A549 (k-ras mutant) NSCLC cells after 10 μM NGI-1 treatment for 24 h. […] Actin expression was used as a control for protein loading. FIG. 4B illustrates MTT assays results of PC9 following treatment with 10 μM NGI-1 or 1 μM tunicamycin for a total of 5 d. Relative proliferation id reported in fold increase from day 0. FIG. 4C illustrates MTT assays results of A549 following treatment with 10 μM NGI-1 or 1 μM tunicamycin for a total of 5 d. Relative proliferation id reported in fold increase from day 0. FIG. 4D illustrates protein phosphorylation profiles of PC9 cells analyzed by phospho-protein array to assess the response of PC9 to 10 μM NGI-1 for 24 h. FIG. 4E illustrates protein phosphorylation profiles of A549 cells analyzed by phospho-protein array to assess the response of A549 to 10 μM NGI-1 for 24 h. […]
(§2) Growth rates were determined by CellTiter 96 NonRadioactive Cell Proliferation Assay (Promega; Madison, Wis. USA) according to the manufacturer's directions. […] Cell numbers were estimated after 0, 3, and 5 days by adding MTT [(3-(4,5-Dimethylthiazol-2-yl)-2,5-diphenyltetrazolium bromide] reagent to the wells 4 hours before taking the spectrophotometric reading (absorbance at 570 nm).

For assay [3], the system named is A549 cells. The assay is described as follows: MTT proliferation assay, A549. The settings on record: A549, 10 μM NGI-1 or 1 μM tunicamycin. The method, then: as §1, §2
In general terms: Tetrazolium dyes change colour on reduction, which living cells bring about.

The test system of assay [4] is PC9 cells. The assay is described as follows: Apoptosis by flow cytometry (Annexin-V, 7-AAD), PC9. As to conditions: PC9, NGI-1 10 μM for 2 or 5 days, or Tn 1 μM. The protocol:
(§3) Analysis of apoptosis susceptibility in A549 and PC9 NSCLC cell lines followed treatment with NGI-1 10 μM or Tn 1 μM for 2 days was done by flow cytometry after staining the cells with Annexin-V (early apoptosis) and 7-AAD (viability dye). […] FIG. 9C: Western blot of BIP protein for A549 and PC9 cells after treatment with 10 μM NGI-1 for 6, 12 or 24 h. The expression of GAPDH was used as a loading control.
In general terms: In flow cytometry, cells or beads pass a laser one at a time.

Assay [5] has as its system A549 cells. The assay is described as follows: Apoptosis by flow cytometry (Annexin-V, 7-AAD), A549. The settings on record: A549, NGI-1 10 μM for 2 or 5 days, or Tn 1 μM. The protocol: as §3

For the substance tunicamycin [reference compound], in assay [1], the “effect on LLO production” value is on record as “blocked all LLO production”. Moreover, the “effect on proliferation, MTT” value with PC9 cells [2] and in the assay on A549 cells [3] was “immediately blocks proliferation in both cell lines” each time. The induction of apoptosis result in the assay with PC9 cells [4] and with A549 cells [5] was “apoptosis was activated” each time.

The values are drawn from patent US11219625B2, “Inhibitors of N-linked glycosylation and methods using same” (YALE UNIVERSITY, priority 2015, dated 2022).
